Entries after “also recorded” stand apart in the source; their conditions may differ. Like-named read-outs stand apart in the source and are kept apart here.
Tests used:
[1] = test system: mitochondrial respiratory chain supercomplex formation (NDUFB8-AcGFP / COX8A-DsRed monomer); assay: FRET (cFRET/Donor) in C2C12 cells stably co-expressing NDUFB8-AcGFP and COX8A-DsRed monomer; format: cell-based, mouse
Source text: In addition, the protein in which the subunit NDUFB8 of respiratory chain complex I was labeled with AcGFP, and the protein in which the subunit COX8A of respiratory chain complex IV labeled with DsRed monomer, were co-expressed, whereby the fluorescence of DsRed monomer was detected at the excitation wavelength of AcGFP, and the FRET efficiency can be calculated (FIG. 2B).
FRET signals between respiratory chain complex subunits in stably expressing cells were examined using C2C12 cells stably expressing both NDUFB8-AcGFP and COX8A-DsRed monomer and C2C12 cells stably expressing both UQCR11-AcGFP and ATP5F1c-DsRed monomer.
The sequences of siRNAs are as follows.
In the primary screening, the cFRET/Donor of living cells with 40 μM of each 1280 compound was measured using the C2C12 expressing cells stably co-expressing NDUFB8-AcGFP and COX8A-DsRed monomer established in this study (FIG. 5B). In the secondary screening, cFRET/Donor was measured by adding 40, 20, 10, 2.5, or 0.6 μM of each compound.
MNS was added to stably expressed C2C12 cells stepwise from low to high concentrations, and the cFRET/Donor was measured. […] In the following experiments, the respiratory chain supercomplex was examined in C2C12 cells under the condition of 1 μM addition.

[2] = test system: respiratory chain supercomplexes I+III2+IV, I+III2, III2+IV; assay: BN-PAGE of mitochondrial fractions extracted from C2C12 cells; format: cell-based, mouse; conditions: compound added, compared to DMSO
C2C12 cells = assay: Oxygen consumption, XFp Extracellular Flux Analyzer; format: cell-based, mouse; conditions: 1 μM, compared to solvent-only control
Method: Oxygen consumption rate (OCR) was measured as follows. The C2C12 cells were seeded (5×10^3 cells/well) in […] (Agilent Tech, CA, USA) and incubated overnight before measuring OCR and ECAR. One hour before the measurement, the medium was replaced with XF base medium containing 1 mM sodium pyruvate, 2 mM […] and 25 mM glucose (Agilent Tech). Basal respiration, ATP production, and maximal respiration (spare respiratory capacity) of C2C12 cells were measured using XFp Extracellular Flux Analyzer (Agilent Tech) and Mito Stress Kit for XFp (Agilent Tech). The drugs were added in the following order: 1.0 μM oligomycin, 0.5 μM carbonyl cyanide-p-trifluoromethoxyphenylhydrazone, and 0.5 μM rotenone. The baseline (basal) OCR was measured three times before and after the addition of the drugs.

DBA/2CrSc1 mice [3] = assay: Treadmill test in mice; format: in vivo; conditions: intraperitoneal, compared to DMSO-treated group
Method: (§1) Seven-week-old DBA/2CrSc1 mice were injected intraperitoneally with MNS, or DMSO as a control. […] In addition, the formation of respiratory chain supercomplexes by BN-PAGE were compared using mitochondrial fractions extracted from the extensor digitorum longus and soleus muscles of the mice in each group.

[4] = Toxicity and body weight in mice, intraperitoneal injection; conditions: seven-week-old DBA/2CrSc1 mice, vs DMSO
Method: as §1

DBA/2CrSc1 mice [5] = assay: Wire-hang test in mice; format: in vivo; conditions: intraperitoneal, compared to DMSO-treated group
Method: as §1

mitochondrial function = conditions: already reported; cited from earlier work
[6] = test system: respiratory chain supercomplexes I+III2+IVn (n=1-2), I+III2, III2+IV; assay: BN-PAGE of mitochondrial fractions from extensor digitorum longus and soleus muscles of mice; format: in vivo; conditions: mitochondria of both extensor digitorum longus and soleus muscles, compared to DMSO
Method: as §1

Syk = Syk mRNA and protein expression after siRNA; format: cell-based, mouse; conditions: C2C12 cells
Source text: Both mRNA and protein expression levels of Syk in C2C12 cells were suppressed by the above #1 and #2 siRNAs. The above siSyk was transfected into cells stably expressing NDUFB8-AcGFP and COX8A-DsRed monomer, and FRET signals were examined. FRET efficiency was increased in siSyk treatment, compared to siControl treatment (FIG. 7A). The formation of respiratory chain supercomplexes was compared using the same siRNA and mitochondrial fractions extracted from C2C12 cells in which Syk expression was suppressed, according to BN-PAGE. […] Oxygen consumption of C2C12 cells in siControl or siSyk treatment was measured using XFp Extracellular Flux Analyzer.

[7] = primary 40 μM; secondary 40, 20, 10, 2.5, 0.6 μM; then BN-PAGE
[8] = compound added, compared to DMSO

Compound | formation of respiratory chain supercomplexes I+III2+IV, I+III2, III2+IV (BN-PAGE) [2] | basal respiration (C2C12 cells) | maximal respiration (spare respiratory capacity) (C2C12 cells) | running distance (DBA/2CrSc1 mice [3]) | running time (DBA/2CrSc1 mice [3]) | change in body weight [4] | toxicity [4] | time holding the wire (DBA/2CrSc1 mice [5]) | outcome of three-step screening (FRET and BN-PAGE) of LOPAC 1280 for compounds that promote respiratory chain supercomplex formation [1, 7] | mRNA expression level of Syk (Syk) | protein expression level of Syk (Syk) | also measured
COc1ccc(-c2cc3nccn3c(Nc3ncccc3C(N)=O)n2)cc1OC [BAY61-3606, 2-[[7-(3,4-dimethoxyphenyl)imidazo[1,2-c]pyrimidin-5-yl]amino]pyridine-3-carboxamide] | increased | significant increases | significant increases | significantly longer | significantly longer | no change | no significant toxicity | significantly prolonged |  |  |  | EC50 ([1]; stably expressed C2C12 cells, added stepwise from low to high concentrations; read-out: 50% effective concentration (EC50) from cFRET/Donor dose-response curve): 1000 nM; ATP production (C2C12 cells): significant increases
CC1(C)CCC2=C(O1)c1ccccc1C(=O)C2=O [Beta-lapachone] |  |  |  |  |  |  |  |  | screened |  |  | mitochondrial function (mitochondrial function): improve mitochondrial function
O=[N+]([O-])/C=C/c1ccc2c(c1)OCO2 [MNS, 3,4-methylenedioxy-β-nitrostyrene] | increased | significant increases | significant increases | significantly longer | significantly longer | no change | no significant toxicity | significantly prolonged | screened |  |  | FRET efficiency between subunit fluorescent fusion proteins of respiratory chain complexes I and IV [1, 8]: increase; corrected value of cFRET/Donor [1, 8]: significantly increased; also recorded: improvement; EC50 ([1]; read-out: 50% effective concentration (EC50) from cFRET/Donor dose-response curve; stably expressed C2C12 cells, added stepwise from low to high concentrations): 574 nM; formation of respiratory chain supercomplexes I+III2+IVn (n=1-2), I+III2, III2+IV (BN-PAGE) [6]: increased
siSyk #1: siRNA against Syk, sense strand SEQ ID NO:1 and antisense strand SEQ ID NO:2 (sense AAUGAAUUCAACAUACAGGGA; antisense CCUGUAUGUUGAAUUCAUUGA; listed as RNA, chemistry not given here) |  |  |  |  |  |  |  |  |  | suppressed | suppressed | 
siSyk #2: siRNA against Syk, sense strand SEQ ID NO:3 and antisense strand SEQ ID NO:4 (sense UUAAUCUUGACAGUAAGACAC; antisense GUCUUACUGUCAAGAUUAAUU; listed as RNA, chemistry not given here) |  |  |  |  |  |  |  |  |  | suppressed | suppressed | 
